From ChEMBL document CHEMBL1201862, “PubChem BioAssay data set” (2004) come the findings set out here.

The nature of experiment [1]: cAMP pathway inhibition in counterscreen cell line – TR-FRET cAMP detection, counter-screen for MC4R biased antagonist project, dose response (AID 602305).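 Also: U2OS cells stimulated with forskolin near its EC80 as the cAMP inducer; potency is for inhibition of forskolin-stimulated cAMP signaling.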 The format is functional, cell-based.
The target of another experiment is Melanocortin receptor 4 (Homo sapiens, UniProt P32245). Kind of experiment: inhibitors of MC4R cAMP signaling – cell-based, TR-FRET, biased antagonists, dose response (AID 602298).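 Also: antagonist potency against agonist-stimulated cAMP production.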 It counts as functional. Background: In TR-FRET formats the signal depends on donor and acceptor labels being close together.
Sequence of Melanocortin receptor 4 (P32245 whole entry): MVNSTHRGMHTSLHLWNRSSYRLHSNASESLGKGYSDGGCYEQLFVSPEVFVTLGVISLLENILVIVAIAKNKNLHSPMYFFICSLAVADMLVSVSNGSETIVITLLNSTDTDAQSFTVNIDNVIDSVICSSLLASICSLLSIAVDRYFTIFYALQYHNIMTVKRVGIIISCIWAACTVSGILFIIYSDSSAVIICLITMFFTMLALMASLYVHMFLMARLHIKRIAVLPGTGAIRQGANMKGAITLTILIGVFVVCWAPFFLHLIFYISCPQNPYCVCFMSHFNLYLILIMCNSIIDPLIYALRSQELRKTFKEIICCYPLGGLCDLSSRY
Experiment [2] concerns the target G-protein coupled receptor 55 (Homo sapiens, UniProt Q9Y2T6). Kind of experiment: selective activators of receptor GPR55 – imaging, U2OS cells, beta-arrestin-GFP redistribution, primary screen (AID 1961). The format is functional.
The nature of experiment [3]: Intein inhibitors as potential Tuberculosis drugs, a cytotoxicity screen. [Related pubchem assays (depositor defined):AID2221, AID2223, AID434968, AID435010, AID449749, AID449750, AID489010]. The format is functional.
The target in experiment [4] is T1, Replicative DNA helicase DnaB (Mycobacterium tuberculosis, UniProt P9WMR3).
T1 sequence (P9WMR3 whole entry): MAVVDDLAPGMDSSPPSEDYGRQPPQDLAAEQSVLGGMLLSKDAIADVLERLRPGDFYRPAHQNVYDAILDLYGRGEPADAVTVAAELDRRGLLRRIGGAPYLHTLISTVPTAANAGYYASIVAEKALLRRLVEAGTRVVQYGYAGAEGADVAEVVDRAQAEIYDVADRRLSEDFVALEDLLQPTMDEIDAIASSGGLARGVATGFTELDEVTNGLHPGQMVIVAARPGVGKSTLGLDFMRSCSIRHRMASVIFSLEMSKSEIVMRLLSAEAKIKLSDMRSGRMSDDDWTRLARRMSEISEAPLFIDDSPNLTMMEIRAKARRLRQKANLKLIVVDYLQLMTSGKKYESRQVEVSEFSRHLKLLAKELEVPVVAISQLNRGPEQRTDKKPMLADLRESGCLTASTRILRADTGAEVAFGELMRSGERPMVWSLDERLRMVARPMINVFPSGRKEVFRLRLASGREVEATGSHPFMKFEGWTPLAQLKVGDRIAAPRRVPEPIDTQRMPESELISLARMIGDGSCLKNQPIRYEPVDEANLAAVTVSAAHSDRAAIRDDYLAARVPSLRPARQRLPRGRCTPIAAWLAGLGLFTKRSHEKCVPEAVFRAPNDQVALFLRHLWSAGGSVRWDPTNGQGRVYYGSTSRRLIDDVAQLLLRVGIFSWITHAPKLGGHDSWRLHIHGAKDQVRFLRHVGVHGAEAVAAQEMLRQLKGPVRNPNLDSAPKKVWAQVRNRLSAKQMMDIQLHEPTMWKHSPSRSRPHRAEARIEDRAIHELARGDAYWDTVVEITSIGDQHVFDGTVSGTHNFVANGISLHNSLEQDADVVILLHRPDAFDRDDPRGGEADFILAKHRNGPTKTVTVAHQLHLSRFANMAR
Kind of experiment: DnaB intein splicing inhibitors, dose response, biochemical, cell-free fluorescence (AID 449749). It counts as functional.

Another experiment addresses T2, Protein RecA (Mycobacterium tuberculosis, UniProt P9WHJ3).
T2 sequence (P9WHJ3 whole entry): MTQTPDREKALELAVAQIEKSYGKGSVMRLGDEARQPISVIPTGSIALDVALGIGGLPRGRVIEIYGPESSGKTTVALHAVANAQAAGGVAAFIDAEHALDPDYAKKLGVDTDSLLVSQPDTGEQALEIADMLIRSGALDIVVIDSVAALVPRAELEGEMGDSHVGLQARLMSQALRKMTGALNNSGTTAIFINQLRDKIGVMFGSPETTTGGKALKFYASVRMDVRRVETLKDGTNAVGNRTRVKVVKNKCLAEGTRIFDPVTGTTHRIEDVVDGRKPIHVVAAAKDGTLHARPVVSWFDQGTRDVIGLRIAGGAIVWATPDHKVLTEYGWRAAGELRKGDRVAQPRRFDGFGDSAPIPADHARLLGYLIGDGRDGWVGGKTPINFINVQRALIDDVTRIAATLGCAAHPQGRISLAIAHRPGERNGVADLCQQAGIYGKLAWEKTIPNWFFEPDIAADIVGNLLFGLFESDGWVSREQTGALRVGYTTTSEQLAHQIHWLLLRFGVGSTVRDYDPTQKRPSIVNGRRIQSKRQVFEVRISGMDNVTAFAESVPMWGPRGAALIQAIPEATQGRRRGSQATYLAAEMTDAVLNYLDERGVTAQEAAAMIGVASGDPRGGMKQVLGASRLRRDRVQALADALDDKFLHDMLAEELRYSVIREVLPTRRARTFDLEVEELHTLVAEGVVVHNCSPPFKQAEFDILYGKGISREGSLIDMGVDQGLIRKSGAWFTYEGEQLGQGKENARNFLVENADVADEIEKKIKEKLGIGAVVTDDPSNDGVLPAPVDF
Kind of experiment: Fluorescence Cell-Free Homogeneous Dose Retest to Identify Inhibitors of RecA-Intein Splicing Activity. [Related pubchem assays (depositor defined):AID2097, AID2223, AID489010, AID492950]. It counts as functional.

Experiment [5] addresses T3, Orexin receptor type 2 (Homo sapiens, UniProt O43614). Kind of experiment: Counterscreen assay for antagonists of the orexin 1 receptor (OX1R; HCRTR1): Homogeneous Time Resolved Fluorescence (HTRF)-based cell-based dose response assay for antagonists of the orexin 2 receptor (OX2R; HCRTR2), run by assay provider. The format is functional. (In general: The purpose of a counterscreen is to sort out artefacts and off-target activity.)

The target in experiment [6] is T4, Orexin/Hypocretin receptor type 1 (Homo sapiens, UniProt O43613).
T4 sequence (O43613 whole entry): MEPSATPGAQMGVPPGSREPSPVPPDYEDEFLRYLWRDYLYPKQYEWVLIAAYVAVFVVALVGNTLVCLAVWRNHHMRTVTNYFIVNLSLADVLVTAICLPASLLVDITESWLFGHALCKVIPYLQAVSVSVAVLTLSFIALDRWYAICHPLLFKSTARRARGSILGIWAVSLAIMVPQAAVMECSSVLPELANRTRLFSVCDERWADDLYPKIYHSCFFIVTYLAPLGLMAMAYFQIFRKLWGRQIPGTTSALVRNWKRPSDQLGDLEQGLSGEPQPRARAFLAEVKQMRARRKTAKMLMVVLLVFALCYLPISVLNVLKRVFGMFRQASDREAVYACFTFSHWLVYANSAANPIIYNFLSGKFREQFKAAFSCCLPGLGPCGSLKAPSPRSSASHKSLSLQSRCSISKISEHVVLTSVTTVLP
Kind of experiment: Fluorescence-based cell-based high throughput dose response assay for antagonists of the orexin 1 receptor (OX1R; HCRTR1). [Related pubchem assays (depositor defined):AID434989, AID435008, AID463079, AID485270, AID492963, AID492964, AID492965, AID493232, AID504717, AID504718]. The format is functional.

Experiment [7] concerns the target T4, Orexin/Hypocretin receptor type 1. Put plainly: Homogeneous Time Resolved Fluorescence (HTRF)-based cell-based high throughput dose response assay for antagonists of the orexin 1 receptor (OX1R; HCRTR1). [Related pubchem assays (depositor defined):AID434989, AID435008, AID463079, AID485270, AID492963, AID492964, AID492965, AID493232, AID504717, AID504718]. The format is functional.

The next experiment concerns CHO-K1. Kind of experiment: Counterscreen for antagonists of the orexin 1 receptor (OX1R; HCRTR1): Homogeneous time resolved fluorescence (HTRF)-based cell-based dose response assay to identify antagonists of the parental CHO-K1 cell line. [Related pubchem assays (depositor defined):AID434989, AID435008, AID463079, AID485270, AID492963, AID492964, AID492965, AID493232, AID504699, AID504701]. The conditions noted are these: Cricetulus griseus. The format is functional.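 Also: potency for inhibition of ATP-stimulated IP1 production as antagonists.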

Experiment [8] can be described thus: Counterscreen for antagonists of the orexin 1 receptor (OX1R; HCRTR1): Fluorescence-based cell-based high throughput dose response assay to identify antagonists of the parental CHO cell line. [Related pubchem assays (depositor defined):AID434989, AID435008, AID463079, AID485270, AID492963, AID492964, AID492965, AID493232, AID504699, AID504701]. It counts as functional.

For experiment [9], the target named is T3, Orexin receptor type 2. Put plainly: Counterscreen assay for antagonists of the orexin 1 receptor (OX1R; HCRTR1): Fluorescence-based cell-based dose response assay for antagonists of the orexin 2 receptor (OX2R; HCRTR2), run by assay provider. It counts as functional.
Experiment [10] addresses Homeodomain-interacting protein kinase 2 (Homo sapiens, UniProt Q9H2X6). It counts as functional.
Experiment [11] addresses Interleukin-1 receptor-associated kinase 4 (Homo sapiens, UniProt Q9NWZ3). It counts as functional.
Experiment [12] deals with Mitogen-activated protein kinase kinase kinase kinase 4 (Homo sapiens, UniProt O95819). It counts as functional.
Sequence of Mitogen-activated protein kinase kinase kinase kinase 4 (O95819 whole entry): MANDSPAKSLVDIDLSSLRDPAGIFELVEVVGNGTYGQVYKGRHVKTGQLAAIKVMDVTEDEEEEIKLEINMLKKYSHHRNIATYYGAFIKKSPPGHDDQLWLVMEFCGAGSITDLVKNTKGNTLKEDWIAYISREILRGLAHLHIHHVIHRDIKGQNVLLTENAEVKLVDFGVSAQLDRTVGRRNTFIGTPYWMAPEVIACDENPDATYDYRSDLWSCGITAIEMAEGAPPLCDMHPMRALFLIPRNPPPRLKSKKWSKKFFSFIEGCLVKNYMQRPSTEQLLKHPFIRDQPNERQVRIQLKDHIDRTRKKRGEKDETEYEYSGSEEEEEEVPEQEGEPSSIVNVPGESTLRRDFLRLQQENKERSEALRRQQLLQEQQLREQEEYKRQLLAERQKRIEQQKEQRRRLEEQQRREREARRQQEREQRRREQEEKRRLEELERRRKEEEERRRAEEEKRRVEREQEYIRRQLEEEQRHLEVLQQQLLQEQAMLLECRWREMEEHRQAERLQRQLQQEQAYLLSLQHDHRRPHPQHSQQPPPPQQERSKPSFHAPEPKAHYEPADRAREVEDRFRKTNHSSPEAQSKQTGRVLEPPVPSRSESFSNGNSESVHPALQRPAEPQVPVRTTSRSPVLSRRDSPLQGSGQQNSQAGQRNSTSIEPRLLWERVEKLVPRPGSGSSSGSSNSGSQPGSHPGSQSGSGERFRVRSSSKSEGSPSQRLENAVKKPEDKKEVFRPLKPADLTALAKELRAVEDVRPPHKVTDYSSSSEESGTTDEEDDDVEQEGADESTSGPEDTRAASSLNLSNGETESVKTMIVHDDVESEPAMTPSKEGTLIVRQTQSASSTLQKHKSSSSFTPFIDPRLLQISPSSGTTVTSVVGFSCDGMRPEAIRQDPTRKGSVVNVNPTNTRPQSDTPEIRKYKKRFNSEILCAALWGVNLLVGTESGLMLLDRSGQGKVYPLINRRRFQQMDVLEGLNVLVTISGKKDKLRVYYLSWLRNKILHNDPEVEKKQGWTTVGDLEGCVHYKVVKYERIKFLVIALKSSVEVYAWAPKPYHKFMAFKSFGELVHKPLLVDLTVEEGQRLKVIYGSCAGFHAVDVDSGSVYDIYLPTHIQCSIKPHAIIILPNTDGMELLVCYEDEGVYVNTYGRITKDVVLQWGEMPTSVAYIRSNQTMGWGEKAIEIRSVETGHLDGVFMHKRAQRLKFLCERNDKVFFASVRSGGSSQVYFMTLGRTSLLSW
Experiment [13] addresses Serine/threonine-protein kinase pim-1 (Homo sapiens, UniProt P11309). It counts as functional.
The target of experiment [14] is cAMP-dependent protein kinase catalytic subunit alpha (Homo sapiens, UniProt P17612). It counts as functional.
For experiment [15], the target named is Cell division cycle 7-related protein kinase (Homo sapiens, UniProt O00311). It counts as functional.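 Also: value obtained from a kinome-wide kinase panel.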
Experiment [16] concerns the target Glycogen synthase kinase-3 beta (Homo sapiens, UniProt P49841). It counts as functional.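 Also: value comes from a broad kinome profiling panel, with GSK3B as the panel member.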
Experiment [17] concerns the target Mitogen-activated protein kinase 9 (Homo sapiens, UniProt P45984). The format is functional.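 Also: value from a kinome panel profiling assay, MAPK9 panel entry.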
For a further experiment, the target named is Aurora kinase A (Homo sapiens, UniProt O14965). The format is functional.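 Also: value from the Navigating the Kinome kinase panel profiling, panel entry STK6.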
Sequence of Aurora kinase A (O14965 whole entry): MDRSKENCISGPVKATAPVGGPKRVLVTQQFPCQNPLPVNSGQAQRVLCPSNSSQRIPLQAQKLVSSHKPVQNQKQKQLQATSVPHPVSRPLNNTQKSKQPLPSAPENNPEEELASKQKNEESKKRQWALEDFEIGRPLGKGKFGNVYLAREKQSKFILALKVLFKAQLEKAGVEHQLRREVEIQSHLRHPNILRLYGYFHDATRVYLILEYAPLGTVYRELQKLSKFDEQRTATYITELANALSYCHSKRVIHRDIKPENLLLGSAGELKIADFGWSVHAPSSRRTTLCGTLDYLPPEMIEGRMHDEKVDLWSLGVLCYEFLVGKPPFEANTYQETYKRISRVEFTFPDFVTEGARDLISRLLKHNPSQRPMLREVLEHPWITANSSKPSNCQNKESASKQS
Another experiment concerns the target Aurora kinase B (Homo sapiens, UniProt Q96GD4). The format is functional.
Experiment [18] concerns the target Vascular endothelial growth factor receptor 2 (Homo sapiens, UniProt P35968). It counts as functional.
In experiment [19] the target is Sphingosine 1-phosphate receptor 4 (Homo sapiens, UniProt O95977). Put plainly: Late-stage fluorescence-based dose-response cell-based counterscreen assay to identify agonists of the Sphingosine 1-Phosphate Receptor 3 (S1P3): Sphingosine 1-Phosphate Receptor 4 (S1P4) agonist assay. The format is functional.
For experiment [20], the target named is Sphingosine 1-phosphate receptor 2 (Homo sapiens, UniProt O95136). Kind of experiment: Late-stage fluorescence-based dose-response cell-based counterscreen assay to identify agonists of the Sphingosine 1-Phosphate Receptor 3 (S1P3): Sphingosine 1-Phosphate Receptor 2 (S1P2) agonist assay. The format is functional.
Sequence of Sphingosine 1-phosphate receptor 2 (O95136 whole entry): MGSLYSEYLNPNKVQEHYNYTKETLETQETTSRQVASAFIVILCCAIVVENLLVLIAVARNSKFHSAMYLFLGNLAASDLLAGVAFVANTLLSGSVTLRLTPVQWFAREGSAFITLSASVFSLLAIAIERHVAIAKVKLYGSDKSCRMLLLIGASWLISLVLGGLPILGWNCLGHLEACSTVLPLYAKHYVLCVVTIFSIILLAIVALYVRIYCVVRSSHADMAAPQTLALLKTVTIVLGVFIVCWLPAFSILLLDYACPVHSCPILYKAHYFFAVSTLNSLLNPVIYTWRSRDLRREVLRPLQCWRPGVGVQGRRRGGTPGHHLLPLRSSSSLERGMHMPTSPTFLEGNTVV
The target in experiment [21] is Serine/threonine-protein kinase D3 (Homo sapiens, UniProt O94806). The format is functional.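 Also: determined within a kinase panel screen, with PRKCN as the panel member.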
Experiment [22] concerns the target Mitogen-activated protein kinase 8 (Homo sapiens, UniProt P45983). It counts as functional.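 Also: value comes from one member of a kinome-wide kinase profiling panel.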

Structures are written as SMILES. Active and inactive are the calls of the source.
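For CC50 in this document: cells exposed to compound for 72 hours before luminescence readout.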

T3 sequence (O43614 whole entry): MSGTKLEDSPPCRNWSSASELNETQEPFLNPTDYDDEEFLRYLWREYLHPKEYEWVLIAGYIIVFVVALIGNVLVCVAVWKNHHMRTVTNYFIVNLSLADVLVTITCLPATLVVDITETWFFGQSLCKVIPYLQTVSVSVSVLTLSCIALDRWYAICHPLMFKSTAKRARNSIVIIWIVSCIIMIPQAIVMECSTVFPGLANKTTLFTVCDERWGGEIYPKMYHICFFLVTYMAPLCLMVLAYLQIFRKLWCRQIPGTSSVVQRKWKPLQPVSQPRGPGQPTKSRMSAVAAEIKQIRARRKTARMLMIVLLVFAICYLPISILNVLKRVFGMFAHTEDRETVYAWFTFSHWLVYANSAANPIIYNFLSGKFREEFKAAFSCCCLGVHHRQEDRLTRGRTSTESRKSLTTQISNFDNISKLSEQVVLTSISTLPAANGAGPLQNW
Sequence of Glycogen synthase kinase-3 beta (P49841 whole entry): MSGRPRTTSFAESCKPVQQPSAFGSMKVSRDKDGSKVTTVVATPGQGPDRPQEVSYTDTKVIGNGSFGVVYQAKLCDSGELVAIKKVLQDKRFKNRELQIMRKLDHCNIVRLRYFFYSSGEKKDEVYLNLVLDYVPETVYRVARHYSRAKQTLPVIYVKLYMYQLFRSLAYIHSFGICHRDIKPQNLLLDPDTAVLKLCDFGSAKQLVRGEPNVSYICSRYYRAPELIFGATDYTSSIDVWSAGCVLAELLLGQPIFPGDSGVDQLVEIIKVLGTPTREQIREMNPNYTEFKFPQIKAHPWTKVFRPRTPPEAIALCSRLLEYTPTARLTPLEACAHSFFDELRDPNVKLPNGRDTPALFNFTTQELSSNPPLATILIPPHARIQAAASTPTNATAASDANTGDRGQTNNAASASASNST
Sequence of Serine/threonine-protein kinase pim-1 (P11309 whole entry): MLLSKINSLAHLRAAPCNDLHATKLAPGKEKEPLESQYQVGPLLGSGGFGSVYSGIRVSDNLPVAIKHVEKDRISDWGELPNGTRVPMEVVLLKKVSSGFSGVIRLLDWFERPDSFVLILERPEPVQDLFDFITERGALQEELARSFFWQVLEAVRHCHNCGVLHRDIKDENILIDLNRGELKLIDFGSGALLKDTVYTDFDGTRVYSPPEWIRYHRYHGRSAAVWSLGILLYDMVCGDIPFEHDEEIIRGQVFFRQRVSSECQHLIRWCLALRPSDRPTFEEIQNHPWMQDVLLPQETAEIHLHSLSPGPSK
Sequence of Aurora kinase B (Q96GD4 whole entry): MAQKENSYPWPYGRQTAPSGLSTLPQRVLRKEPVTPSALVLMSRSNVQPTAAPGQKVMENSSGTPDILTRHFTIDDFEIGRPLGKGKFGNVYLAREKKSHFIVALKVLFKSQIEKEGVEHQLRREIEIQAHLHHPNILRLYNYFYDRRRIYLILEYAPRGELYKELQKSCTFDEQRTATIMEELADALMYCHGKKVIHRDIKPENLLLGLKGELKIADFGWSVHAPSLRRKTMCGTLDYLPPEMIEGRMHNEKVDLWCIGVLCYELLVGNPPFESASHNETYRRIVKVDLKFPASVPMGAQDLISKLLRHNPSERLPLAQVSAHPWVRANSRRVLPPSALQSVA
Sequence of G-protein coupled receptor 55 (Q9Y2T6 whole entry): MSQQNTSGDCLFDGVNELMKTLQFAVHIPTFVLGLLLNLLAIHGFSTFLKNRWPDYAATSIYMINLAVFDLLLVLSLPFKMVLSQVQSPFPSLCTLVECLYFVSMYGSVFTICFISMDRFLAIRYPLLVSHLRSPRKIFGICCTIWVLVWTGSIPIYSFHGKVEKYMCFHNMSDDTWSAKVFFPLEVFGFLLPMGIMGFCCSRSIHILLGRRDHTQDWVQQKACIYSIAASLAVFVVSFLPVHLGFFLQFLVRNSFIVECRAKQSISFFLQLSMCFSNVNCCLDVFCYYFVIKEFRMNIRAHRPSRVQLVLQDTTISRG
Sequence of Mitogen-activated protein kinase 8 (P45983 whole entry): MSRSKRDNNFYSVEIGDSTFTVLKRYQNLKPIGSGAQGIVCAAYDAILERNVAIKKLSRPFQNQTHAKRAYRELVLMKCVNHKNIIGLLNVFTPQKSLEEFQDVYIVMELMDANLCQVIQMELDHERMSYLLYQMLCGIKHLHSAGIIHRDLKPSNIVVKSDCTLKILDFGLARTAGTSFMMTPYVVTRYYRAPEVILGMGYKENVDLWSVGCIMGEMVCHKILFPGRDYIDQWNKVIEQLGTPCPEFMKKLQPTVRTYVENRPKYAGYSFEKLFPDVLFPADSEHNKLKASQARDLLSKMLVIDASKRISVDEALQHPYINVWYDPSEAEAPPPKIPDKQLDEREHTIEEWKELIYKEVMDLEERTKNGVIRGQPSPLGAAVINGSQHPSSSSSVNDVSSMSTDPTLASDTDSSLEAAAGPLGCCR

Consider `Cc1ccc2c(c1)c1c3n2CCN(C(=O)CCl)C3CCC1` (configuration not stated), for which the IC50 (in experiment [1]; at Melanocortin receptor 4) was > 64.6 µM (inactive) each time. The EC50 in [2] is > 32 µM (inactive); at Protein RecA, 1.19 µM (active). Besides, in experiment [3], the 50% cytotoxic concentration (CC50) is 24.7 µM (active). The half-maximal activity concentration (AC50) in [4] is 2.05 µM (active).

As to `O=C(C1CCCN1S(=O)(=O)c1cccc2cccnc12)N1CCn2c1nc1ccccc12` (configuration not stated), the 50% inhibitory concentration (IC50) at Orexin receptor type 2 [5] is 9.68 µM (active); in experiment [6], 3.36 µM (active); in [7], 0.153 µM (active); in the experiment on CHO-K1, > 66.2 µM (inactive); in [8], > 49.7 µM (inactive); at Orexin receptor type 2 [9], > 88.8 µM (inactive).

Take `Cc1n[nH]c2ccc(-c3cncc(OCCNS(C)(=O)=O)c3)cc12`: the inhibitory constant (Ki) in [10] is 1 µM (active); in experiment [11] it was 3.98 µM (active); in experiment [12], 0.0794 µM (active); in experiment [13] it was 5.01 µM (active); in [14] it was 6.31 µM (active); in experiment [15], 0.0631 µM (active). In addition, in experiment [16], the Ki was 1 µM (active).

In the case of `CC(C)(C)c1cc(NC(=O)c2cc3ccccc3s2)n(-c2cccc(OCC(=O)O)c2)n1`, in [17], the Ki is 2 µM (active).

`O=S(=O)(Nc1ccc2c(c1)C(=NO)c1ccccc1-2)c1ccccc1F`: the values for the Ki (on Aurora kinase A; on Aurora kinase B; in experiment [18]) were 0.794 µM (active), 0.02 µM (active) and 0.794 µM (active), respectively.

Consider `CCN(CC)C(=O)c1cc(C2CC2)on1`, for which the EC50 in experiment [19] and in [20] was > 50 µM (inactive) each time.

Consider `CCOc1nc(NC(=O)C(C)C)cc(N)c1C#N`, for which the inhibitory constant (Ki) in experiment [21] was 7.94 µM (active); in experiment [22], 1.26 µM (active).

As a reminder, the IC50 is the point on the concentration scale where inhibition reaches its midpoint. What is called EC50 is the concentration giving half of the maximal effect. As usually defined, the CC50 is the concentration giving 50% cytotoxicity. The term AC50 denotes the concentration giving half of the maximal activity seen. For orientation: Ki means a measure of affinity in units of concentration, obtained from inhibition or displacement.
